This is an account of results in patent US20260166162A1, “CARBON CHAIN SUBSTANCE FOR REGULATING TRANSMEMBRANE TRANSPORT AND FLUIDITY OF CELL MEMBRANES, AND PREPARATION AND USE THEREOF” (priority 2022, published 2026).

Where two headings read alike, the source gives them in different places.

Holding throughout (assay type): cell-based
Assay [1] deals with rabies pseudovirus.
The subject of assay [2] is 293T cells. Put plainly: Cellular phagocytosis of DiD-loaded lipid vesicles (nano-drugs) by 293T cells (Example II-51, Table II-29). To be noted: 293T cells pretreated 4 h, DiD lipid vesicles 2 h, n=3, untreated control 226.46 ± 1.26.
The test system of assay [3] is influenza pseudovirus H7N9-Fluc. Description: microbe, parasite or virus in culture. As to conditions: n=3; for inhibition at 0.002 µM / inhibition at 0.005 µM / inhibition at 0.01 µM / inhibition at 0.05 µM / inhibition at 0.1 µM / inhibition at 1 µM / inhibition at 10 µM / inhibition at 50 µM / inhibition at 100 µM: Pseudovirus, H7N9, read-out: Inhibition rate (%).

Assay [4] relates to HIV pseudovirus (18A-41). As to conditions: 293T cells pretreated 4 h, n=3.

With `CC/C=C\C/C=C\C/C=C\C/C=C\C/C=C\C/C=C\CCC(=O)OCC(O)C1OC(=O)C(O)=C1O` (centres unmarked) [Ascorbic Acid-DHA], the “Inhibition rate (%)” value came out at 51.40 ± 1.54% in assay [1] (2 nM, n=3); 51.99 ± 3.99% in assay [1] (5 nM, n=3); 64.84 ± 6.57% in assay [1] (10 nM, n=3); 70.88 ± 4.22% in assay [1] (50 nM, n=3); 79.06 ± 2.39% in assay [1] (100 nM, n=3); 14.83 ± 4.26% in assay [1] (1 μM, n=3). Besides, the “Inhibition rate (%)” value in assay [1] (10 μM, n=3) is listed as 34.88 ± 5.99%; in assay [1] (50 μM, n=3), 95.55 ± 6.98%; in assay [1] (100 μM, n=3), 99.08 ± 6.36%. For the same compound, the Fluorescence intensity in assay [2] (2 nM) is listed as 98.37 ± 7.89; in assay [2] (5 nM), 92.26 ± 8.23; in assay [2] (10 nM), 69.70 ± 4.55; in assay [2] (50 nM), 73.98 ± 5.36; in assay [2] (100 nM), 243.38 ± 11.00; in assay [2] (1 uM) it was 253.70 ± 10.23. Moreover, the Fluorescence intensity in assay [2] (10 uM) is given as 58.97 ± 1.55; in assay [2] (50 uM), 39.02 ± 1.03; in assay [2] (100 uM), 19.86 ± 0.23.

What is called inhibition is the change of the read-out against control, counted positive when it falls. In the case of `C=CCCCCCCCCC(=O)[O-].[Na+]` [Sodium undecylenate], the inhibition at 0.002 µM in assay [3] (2 nM) stood at 30.5 ± 2.36%. Further, the inhibition at 0.005 µM in assay [3] (5 nM) came to 22.1 ± 2.14%. In addition, in assay [3] (10 nM), the inhibition at 0.01 µM is 53 ± 5.03%. Besides, the inhibition at 0.05 µM in assay [3] (50 nM) stood at 56.3 ± 5.03%. Also, in assay [3] (100 nM), the inhibition at 0.1 µM is 53 ± 4.06%. In addition, the inhibition at 1 µM in assay [3] (1 μM) was -7.39 ± 0.22%. In addition, the inhibition at 10 µM in assay [3] (10 μM) worked out at 40.2 ± 3.23%. For the same compound, in assay [3] (50 μM), the inhibition at 50 µM is 71.4 ± 3.26%. In assay [3] (100 μM), the inhibition at 100 µM was determined as 54 ± 4.39%. The Fluorescence intensity in assay [2] (2 nM) is listed as 135.63 ± 7.06; in assay [2] (5 nM), 100.34 ± 8.06; in assay [2] (10 nM) it was 89.79 ± 4.98; in assay [2] (50 nM) it was 62.57 ± 3.60; in assay [2] (100 nM), 57.18 ± 5.23; in assay [2] (1 uM), 232.89 ± 12.26. In addition, the Fluorescence intensity in assay [2] (10 uM) is 325.29 ± 15.22; in assay [2] (50 uM), 63.77 ± 3.37; in assay [2] (100 uM) it was 58.70 ± 2.66.

For the compound `CCCCCCCCC(=O)O` [Nonanoic acid], the inhibition at 0.002 µM in assay [3] (2 nM) was determined as 42 ± 3.06%. Besides, the inhibition at 0.005 µM in assay [3] (5 nM) turned out to be 49.7 ± 1.56%. The inhibition at 0.01 µM in assay [3] (10 nM) is 58.3 ± 4.02%. In addition, in assay [3] (50 nM), the inhibition at 0.05 µM was 57.3 ± 1.66%. Further, the inhibition at 0.1 µM in assay [3] (100 nM) is 36.4 ± 2.33%. Besides, in assay [3] (1 μM), the inhibition at 1 µM is -4.93 ± 0.23%. Moreover, the inhibition at 10 µM in assay [3] (10 μM) worked out at 34.8 ± 3.06%. For the same compound, the inhibition at 50 µM in assay [3] (50 μM) stood at 40.1 ± 1.23%. The inhibition at 100 µM in assay [3] (100 μM) came out at 43.8 ± 4.38%. Also, the Fluorescence intensity in assay [2] (2 nM) is given as 157.30 ± 7.06; in assay [2] (5 nM), 176.50 ± 7.06; in assay [2] (10 nM), 106.35 ± 4.65; in assay [2] (50 nM), 98.90 ± 8.26; in assay [2] (100 nM) it was 106.35 ± 5.06; in assay [2] (1 uM), 243.20 ± 13.65. Moreover, the Fluorescence intensity in assay [2] (10 uM) is 135.36 ± 11.03; in assay [2] (50 uM), 64.86 ± 5.54; in assay [2] (100 uM) it was 104.28 ± 10.25.

Take `Cc1c(C)c2c(c(C)c1O)CCC(C)(CCCC(C)CCCC(C)CCCC(C)C)O2` (centres unmarked) [Vitamin-E, Vitamin E]: the “Inhibition rate (%)” value was 55.66 ± 6.03% in assay [4] (2 nM); 61.87 ± 5.06% in assay [4] (5 nM); 70.04 ± 4.65% in assay [4] (10 nM); 79.33 ± 5.89% in assay [4] (50 nM); 89.99 ± 8.97% in assay [4] (100 nM); -84.33 ± 6.36% in assay [4] (1 μM). Also, the “Inhibition rate (%)” value is reported as 4.16 ± 0.11% in assay [4] (10 μM); 61.36 ± 8.64% in assay [4] (50 μM); 58.98 ± 6.37% in assay [4] (100 μM, negative value = promotes infection). Also, the Fluorescence intensity is reported as 100.41 ± 4.43 in assay [2] (2 nM); 86.35 ± 2.47 in assay [2] (5 nM); 67.85 ± 1.43 in assay [2] (10 nM); 46.81 ± 1.48 in assay [2] (50 nM); 22.67 ± 0.03 in assay [2] (100 nM); 417.43 ± 15.23 in assay [2] (1 uM). The Fluorescence intensity in assay [2] (10 uM) is reported as 217.04 ± 7.44; in assay [2] (50 uM) it was 87.50 ± 2.33; in assay [2] (100 uM) it was 92.89 ± 5.33.

Take `CCCCCCCCCC(=O)O` [N-decanoic acid]: the “Inhibition rate (%)” value in assay [3] (2 nM) is recorded as 35.04 ± 2.04%; in assay [3] (5 nM), 31.86 ± 2.23%; in assay [3] (10 nM) it was 66.11 ± 2.33%; in assay [3] (50 nM), 75.38 ± 2.03%; in assay [3] (100 nM), 75.54 ± 4.00%; in assay [3] (1 μM), -32.33 ± 1.56%. Also, the figures for the “Inhibition rate (%)” value in assay [3] (10 μM), in assay [3] (50 μM) and in assay [3] (100 μM) were -54.38 ± 4.38%, 41.08 ± 4.08% and 47.98 ± 3.09%, respectively. Moreover, the Fluorescence intensity in assay [2] (2 nM) was 131.26 ± 8.63; in assay [2] (5 nM), 114.00 ± 11.2; in assay [2] (10 nM), 94.34 ± 7.54; in assay [2] (50 nM), 96.63 ± 6.99; in assay [2] (100 nM) it was 143.94 ± 13.26; in assay [2] (1 uM) it was 237.62 ± 17.5. For the same compound, the figures for the Fluorescence intensity in assay [2] (10 uM), in assay [2] (50 uM) and in assay [2] (100 uM) were 147.74 ± 14.23, 135.74 ± 15.2 and 127.34 ± 12.22, respectively.

Ascorbic acid-undecanedioic acid: the “Inhibition rate (%)” value in assay [3] (2 nM) is 36.88 ± 5.99%; in assay [3] (5 nM) it was 70.10 ± 2.01%; in assay [3] (10 nM), 71.74 ± 5.03%; in assay [3] (50 nM), 67.01 ± 5.59%; in assay [3] (100 nM), 74.96 ± 2.33%; in assay [3] (1 μM) it was 32.33 ± 2.37%. The “Inhibition rate (%)” value turned out to be 44.08 ± 1.28% in assay [3] (10 μM), 83.56 ± 4.03% in assay [3] (50 μM) and 73.01 ± 4.05% in assay [3] (100 μM).

Turning to Glucose-oleic acid, the “Inhibition rate (%)” value was 50.11 ± 3.11% in assay [1] (0.002 µM); 65.69 ± 6.69% in assay [1] (0.005 µM); 80.35 ± 2.06% in assay [1] (0.01 µM); 72.37 ± 3.37% in assay [1] (0.05 µM); 71.05 ± 2.54% in assay [1] (0.1 µM); -14.84 ± 1.54% in assay [1] (1 µM). In addition, the results for the “Inhibition rate (%)” value in assay [1] (10 µM), in assay [1] (50 µM) and in assay [1] (100 µM) were -33.5 ± 2.54%, 70.04 ± 5.07% and 80.21 ± 5.30%, respectively. Also, the Fluorescence intensity in assay [2] (2 nM) is 102.16 ± 8.65; in assay [2] (5 nM), 92.37 ± 4.56; in assay [2] (10 nM) it was 65.99 ± 6.23; in assay [2] (100 nM), 71.02 ± 4.02; in assay [2] (1 uM), 436.71 ± 15.66; in assay [2] (10 uM) it was 216.29 ± 5.24. Further, the Fluorescence intensity in assay [2] (50 uM) is given as 42.89 ± 2.32; in assay [2] (100 uM), 26.41 ± 5.32.

As to `CCCCCC/C=C\CCCCCCCC(=O)OC(C)C(N)C(=O)O` (centres unmarked) [Threonine-c-9-hexadecanoic acid], the “Inhibition rate (%)” value in assay [3] (2 nM) is 56.47 ± 5.47%; in assay [3] (5 nM), 79.21 ± 5.22%; in assay [3] (10 nM), 60.86 ± 4.03%; in assay [3] (50 nM), 59.03 ± 1.64%; in assay [3] (100 nM) it was 68.64 ± 2.03%; in assay [3] (1 μM) it was 12.84 ± 1.03%. In addition, the figures for the “Inhibition rate (%)” value in assay [3] (10 μM), in assay [3] (50 μM) and in assay [3] (100 μM) were 34.49 ± 4.49%, 71.06 ± 4.08% and 78.34 ± 4.39%, respectively.
